Experimental data taken from US20260199346A1, “METHODS OF TREATING SOLID TUMORS DRIVEN BY HER2 ALTERATIONS WITH TUCATINIB IN COMBINATION WITH AN ANTI-HER2 ANTIBODY” (Seagen Inc., priority 2020, published 2026).

What was measured:
HER2 [1] = target: T1, HER2 (Homo sapiens, UniProt P04626); test: plasma membrane-bound HER2 levels by quantitative FACS (qFACS); type: cell-based; parameters: four different HER2-amplified breast cancer cell lines (BT-474, SK-BR-3, HCC-1419, and UACC-893); endogenous in cells; host or cells: BT-474, SK-BR-3, HCC-1419, UACC-893; details: 30 nM or 100 nM tucatinib, 24 hours and 48 hours; BT-474, SK-BR-3, HCC-1419 and UACC-893 HER2-amplified breast cancer cell lines
T1 sequence (P04626 23-1255): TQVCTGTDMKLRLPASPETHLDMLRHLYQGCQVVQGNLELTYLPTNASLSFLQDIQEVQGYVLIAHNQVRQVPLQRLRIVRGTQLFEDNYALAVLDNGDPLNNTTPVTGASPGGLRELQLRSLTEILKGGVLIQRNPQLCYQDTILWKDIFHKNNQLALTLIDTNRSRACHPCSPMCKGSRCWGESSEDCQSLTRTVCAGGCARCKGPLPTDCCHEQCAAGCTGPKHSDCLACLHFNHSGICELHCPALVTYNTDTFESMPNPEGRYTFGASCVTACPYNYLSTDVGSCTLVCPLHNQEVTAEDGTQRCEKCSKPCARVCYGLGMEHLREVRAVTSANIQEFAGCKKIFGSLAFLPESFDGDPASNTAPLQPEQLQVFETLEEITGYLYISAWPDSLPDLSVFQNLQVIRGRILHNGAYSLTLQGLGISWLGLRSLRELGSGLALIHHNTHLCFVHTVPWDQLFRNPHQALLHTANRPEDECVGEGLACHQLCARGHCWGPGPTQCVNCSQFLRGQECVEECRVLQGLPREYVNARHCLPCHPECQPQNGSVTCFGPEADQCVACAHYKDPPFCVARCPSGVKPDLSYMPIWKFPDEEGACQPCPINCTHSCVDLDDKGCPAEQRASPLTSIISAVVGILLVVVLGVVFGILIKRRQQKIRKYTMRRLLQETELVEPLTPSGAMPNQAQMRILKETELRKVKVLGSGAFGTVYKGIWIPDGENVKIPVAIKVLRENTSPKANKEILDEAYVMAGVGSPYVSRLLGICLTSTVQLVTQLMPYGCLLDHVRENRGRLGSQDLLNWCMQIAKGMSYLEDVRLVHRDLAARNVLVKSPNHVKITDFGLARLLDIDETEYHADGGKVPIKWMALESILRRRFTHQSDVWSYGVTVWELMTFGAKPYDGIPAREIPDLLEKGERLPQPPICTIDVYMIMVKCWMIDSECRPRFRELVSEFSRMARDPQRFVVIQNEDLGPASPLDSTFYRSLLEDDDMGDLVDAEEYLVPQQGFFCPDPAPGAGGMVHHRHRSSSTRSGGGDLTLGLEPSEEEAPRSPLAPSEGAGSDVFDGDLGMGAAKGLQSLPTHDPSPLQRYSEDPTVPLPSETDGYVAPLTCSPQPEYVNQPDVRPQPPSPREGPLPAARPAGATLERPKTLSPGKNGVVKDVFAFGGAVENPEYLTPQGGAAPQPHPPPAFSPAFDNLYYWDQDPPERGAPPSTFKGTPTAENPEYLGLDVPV
Protocol: (§1) Protein lysates were generated from cells harvested at each time point, HER2 total protein levels were determined by western blot analysis using a WES system, and normalized against GAPDH levels as a loading control. As shown in FIG. 1A-1D, in all four cell lines tested, HER2 total protein levels increased after treatment with tucatinib relative to untreated cell lines. Total HER2 protein levels are shown as a percentage of the total HER2 protein levels of untreated cells. Plasma membrane-bound levels of HER2 were determined by quantitative FACS (qFACS) analysis after exclusion of dead cells. As shown in FIG. 1E-1H, treatment with either 30 nM or 100 nM increased plasma membrane-bound HER2 protein levels in all four cell lines relative to untreated cell lines. Plasma membrane-bound HER2 protein levels are shown as a percentage of the plasma membrane-bound HER2 protein levels of untreated cells.

HER2 [2] = target: T1, HER2; test: HER2 internalization assay using Trastuzumab-QF (lysosomal processing); type: cell-based; details: tucatinib 100 nM; SK-BR-3 cells; Trastuzumab-QF in the presence of chloroquine
Protocol: (§2) To probe the dynamics of HER2 at the cell surface upon binding to antibody therapeutics in the presence or absence of tucatinib (100 nM), SK-BR-3 cells were incubated with fluorescently-labeled trastuzumab (Trastuzumab-AF488) to mark HER2 at the cell surface. Excess antibody was washed out. Cells were imaged at time points spanning 72 hours to observe internalization of surface-bound antibody. […] Concurrent experiments were conducted with trastuzumab labeled with QF (Trastuzumab-QF) […], a quenched fluorophore which fluoresces upon lysosomal processing and can serve as a proxy for antibody catabolism.

HER2 [3] = target: T1, HER2; test: cellular signaling assays, selectivity for HER2 compared to EGFR; type: cell-based; parameters: four different HER2-amplified breast cancer cell lines (BT-474, SK-BR-3, HCC-1419, and UACC-893); endogenous in cells; host or cells: BT-474, SK-BR-3, HCC-1419, UACC-893
Source text: (§3) Tucatinib inhibits the HER2-driven mitogen-activated protein and PI3 kinase signaling pathways, resulting in inhibition of tumor cell proliferation, survival, and metastasis.

HER2 [4] = target: T1, HER2; test: HER2 internalization assay using Trastuzumab-AF488; type: cell-based; details: tucatinib 100 nM, SK-BR-3 cells, imaged at time points spanning 72 hours
Protocol: as §2

HER2 [5] = target: T1, HER2; test: HER2 total protein levels by western blot analysis (WES system), normalized against GAPDH; type: cell-based; parameters: four different HER2-amplified breast cancer cell lines (BT-474, SK-BR-3, HCC-1419, and UACC-893); endogenous in cells; host or cells: BT-474, SK-BR-3, HCC-1419, UACC-893; details: 30 nM or 100 nM tucatinib, 24 hours and 48 hours; BT-474, SK-BR-3, HCC-1419 and UACC-893 HER2-amplified breast cancer cell lines
Protocol: as §1

HER2 [6] = target: T1, HER2; test: inhibition of HER2 in vitro; type: biochemical
Source text: as §3

For `Cc1cc(Nc2ncnc3ccc(NC4=NC(C)(C)CO4)cc23)ccc1Oc1ccn2ncnc2c1` [tucatinib, N^4-(4-([1,2,4]triazolo[1,5-a]pyridin-7-yloxy)-3-methylphenyl)-N^6-(4,4-dimethyl-4,5-dihydrooxazol-2-yl) quinazoline-4,6-diamine], the “plasma membrane-bound HER2 protein levels relative to untreated cell lines” value (HER2 [1]) was “increased”, the “internalization and lysosomal processing of HER2-bound antibody” value (HER2 [2]) was “rapid internalization and lysosomal processing” and the “selectivity for HER2 compared to the closely related kinase EGFR” value (HER2 [3]) was > 1000 fold. The “dwell time of HER2 at the cell surface” value (HER2 [4]) was “increased”, the “HER2 total protein levels relative to untreated cell lines” value (HER2 [5]) was “increased” and the “inhibition of HER2 in vitro” value (HER2 [6]) was “potent inhibitor of HER2 in vitro”.
